Converted amounts (≈) assume the structure as drawn. Where two headings read alike, the source gives them in different places.
Key:
[1] = test system: microorganisms with acquired resistance; assay: microbe, parasite or virus in culture; format: cell-based
[2] = test system: inherently resistant microorganisms; assay: microbe, parasite or virus in culture; format: cell-based
[3] = Staphylococcus aureus, read-out: MIC alone (antibiotic agent), S. aureus

SMILES	MIC comb. (antibiotic agent) ([1]; S. aureus, with MBI 26)	MIC comb. (antibiotic agent) ([1]; S. haemolyticus, with MBI 26)	MIC [1, 3]	MIC comb. (antibiotic agent) ([1]; A. calcoaceticus, with MBI 26)	MIC comb. (antibiotic agent) ([1]; A. calcoaceticus, with MBI 29)	MIC ([1]; Acinetobacter calcoaceticus, read-out: MIC alone (antibiotic agent), A. calcoaceticus)	MIC comb. (antibiotic agent) ([1]; P. aeruginosa, with MBI 29)	MIC ([1]; Pseudomonas aeruginosa, read-out: MIC alone (antibiotic agent), P. aeruginosa)	MIC ([2]; Acinetobacter calcoaceticus, read-out: Erythromycin MIC + MBI 26, A. calcoaceticus AC001)	MIC ([2]; Klebsiella pneumoniae, read-out: Erythromycin MIC + MBI 26, K. pneumoniae KP001)	MIC ([2]; Klebsiella pneumoniae, read-out: Erythromycin MIC + MBI 26, K. pneumoniae KP002)	MIC ([2]; Klebsiella pneumoniae, read-out: Erythromycin MIC Alone, K. pneumoniae KP002)	MIC ([2]; Pseudomonas aeruginosa, read-out: Erythromycin MIC + MBI 26, P. aeruginosa PA041)	MIC ([2]; Pseudomonas aeruginosa, read-out: Erythromycin MIC Alone, P. aeruginosa PA041)	MIC ([1]; Staphylococcus epidermidis, read-out: MIC alone (antibiotic agent), S. epidermidis)	MIC ([1]; Staphylococcus haemolyticus, read-out: MIC alone (antibiotic agent), S. haemolyticus)
CC1(C)S[C@@H]2[C@H](NC(=O)[C@H](N)c3ccccc3)C(=O)N2[C@H]1C(=O)O [Ampicillin]	0.25 µg/mL (≈ 0.715 µM)	0.25 µg/mL (≈ 0.715 µM)	2 µg/mL (≈ 5.72 µM)													
CC(C)(O/N=C(\C(=O)N[C@@H]1C(=O)N2C(C(=O)[O-])=C(C[n+]3ccccc3)CS[C@H]12)c1csc(N)n1)C(=O)O [Ceftazidime]				2 µg/mL (≈ 3.66 µM)	2 µg/mL (≈ 3.66 µM)	32 µg/mL (≈ 58.5 µM)	16 µg/mL (≈ 29.3 µM)	64 µg/mL (≈ 117 µM)								
CC[C@H]1OC(=O)[C@H](C)[C@@H](O[C@H]2C[C@@](C)(OC)[C@@H](O)[C@H](C)O2)[C@H](C)[C@@H](O[C@@H]2O[C@H](C)C[C@H](N(C)C)[C@H]2O)[C@](C)(O)C[C@@H](C)C(=O)[C@H](C)[C@@H](O)[C@]1(C)O [Erythromycin]			8 µg/mL (≈ 10.9 µM)						1 µg/mL	0.25 µg/mL	0.5 µg/mL	256 µg/mL (≈ 349 µM)	4 µg/mL	128 µg/mL (≈ 174 µM)	8 µg/mL (≈ 10.9 µM)	8 µg/mL (≈ 10.9 µM)

Reference: patent US20020035061A1, “COMPOSITIONS AND METHODS FOR TREATING INFECTIONS USING CATIONIC PEPTIDES ALONE OR IN COMBINATION WITH ANTIBIOTICS” (priority 1996, published 2002)
